Results reported in US9161935B2 (TEVA PHARMACEUTICAL INDUSTRIES, LTD., priority 2012, dated 2015).

What was measured:
[1] = Previous pharmacokinetic studies of laquinimod; type: in vivo; conditions: loading dose regimen (double dose on first two days)
Text: In order to decrease thee time to steady state and potentially decrease time to response, a loading dose regimen described below was used to allow steady state levels to be reached in approximately 6-7 days.

[2] = test system: Subjects with moderate to severe Crohn's disease (CD); assay: Phase IIb trial LAQ-CD-202 (Example 3); type: in vivo, human
Method: Capsules should be swallowed with a glass of water.
On Days 1 and 2, this dose is administered twice daily (BID) as a loading dose (total daily dose 0.5 mg). Dosing is once daily (QD) from Day 3 onwards.
On Days 1 and 2, this dose is administered BID as a loading dose (total daily dose 1 mg). Dosing is QD from Day 3 onwards.
Subjects with moderate to severe Crohn's disease (CD), as determined by a Crohn's Disease Activity Index (CDAI) score of 220-450 (inclusive).
Remission: subjects with CDAI <150 subjects not designated a Treatment Failure (TF).
Response 100: reduction of CDAI by at least 100 points compared to Baseline in subjects not designated a Treatment Failure (TF). Any subject with Remission is also considered to have achieved Response 100.
Response 70: reduction of CDAI by at least 70 points compared to Baseline, in subjects not designated a TF.
(§1) IBDQ Response: An increase from baseline in total IBDQ score of ≧16 points.
(§2) IBDQ Remission: A total IBDQ score of >170 points.
Treatment duration is 8 weeks. Scheduled in-clinic visits are conducted at Screening, Baseline (Week 0), and at Weeks 1, 2, 4, 6, and 8. Unscheduled visits for safety or for any other reason may be conducted at any time during the study
A loading dose regimen of the study drug is given during the first 2 days of treatment (Day 1 [Baseline] and Day 2). The first loading dose of the study drug is administered at the site. The loading dose doubles the intended dose for the first 2 days and is administered BID with 12-hour intervals between dosing. Thereafter, starting on Day 3, the dosing regimen consists of the intended dose QD.
During the study period the CDAI score is assessed in addition to routine safety. Subjects are required to maintain CDAI diaries for each day of the Screening period and, if randomized, on each day of the treatment period. The scores obtained from the 7 consecutive diaries completed prior to the Baseline visit and to each of Weeks 1, 2, 4, 6, and 8 contribute to a total CDAI score at each of these time points.
The primary efficacy endpoint is the proportion of subjects achieving Remission (CDAI <150) at Week 8 with subjects not designated a Treatment Failure (TF).
Secondary Efficacy Endpoints: • Proportion of subjects achieving Response 70 at Week 8. • Proportion of subjects achieving Response 100 at Week 8. • Mean change in total IBDQ score from Baseline to Week 8. • Proportion of subjects with an IBDQ Response at Week 8. • Proportion of subjects with IBDQ Remission at Week 8.

[3] = test system: Moderate to Severe Crohn's Disease Patients; assay: Phase III 52-week maintenance of remission study LAQ-CD-303 (Example 4); type: in vivo, human
Method: A phase III, randomized, double-blind, placebo-controlled 52-week maintenance of remission study is conducted in active moderate to severe Crohn's disease patients.
Subjects with a Response during the 8-week induction studies LAQ-CD-202, LAQ-CD-301, or LAQ-CD-302 are re-randomized into this placebo-controlled maintenance study. Response in those induction studies was defined as a Crohn's Disease Activity Index (CDAI) reduction of at least 70 points from Baseline and CDAI <220 at Week 8 of the induction study in the absence of treatment failure (TF); in particular, this included subjects in Remission. In those 3 induction studies, TF was defined as follows: any new medication/treatment (including surgery) for Crohn's disease (CD) or dose increase not allowed by the protocol, throughout the study period; any early termination from the study was also regarded as TF. No de novo subjects are included in this study.
Remission: Subjects with CDAI <150 with no Treatment Failure (TF) during the course of the study.
Steroid Free Remission: Subjects achieving both Remission and steroid free.
as §1, §2
Treatment duration is 52 weeks. Scheduled in-clinic visits are conducted at Baseline (Week 0), and at Weeks 2, 4, 8, 12, 16, 20, 28, 36, 44, and 52. The Week 0 visit for this maintenance study is the same as the Week 8 visit in the induction study. Unscheduled visits for safety or for any other reason may be conducted at any time during the study.
Primary Efficacy Endpoint: • The primary endpoint is evaluated for subjects who belong to the PEC. • The proportion of subjects in Remission at Week 52.
Secondary Efficacy Endpoints: • The secondary endpoints are evaluated for subjects who belong to the PEC. • The proportion of subjects in Sustained Remission (defined as Remission at Week 36 and Week 52). • The proportion of subjects with Steroid-free Remission at Week 52. • Mean change in total IBDQ score from Baseline to Week 52. • Proportion of subjects with an IBDQ Response at Week 52. • Proportion of subjects with IBDQ Remission at Week 52.

## CCN(C(=O)c1c(O)c2c(Cl)cccc2n(C)c1=O)c1ccccc1 [laquinimod]
[1]
  time to steady state levels: 6 to 7 days
[2]; 0.25 mg/day
  improve IBDQ score from Baseline by Week 8: effective
  induce IBDQ Response and/or IBDQ Remission by Week 8: effective
  induce Remission (CDAI <150) by Week 8: effective
  induce Response 70 and/or Response 100 by Week 8: effective
[2]; 0.5 mg/day
  improve IBDQ score from Baseline by Week 8: effective
  induce IBDQ Response and/or IBDQ Remission by Week 8: effective
  induce Remission (CDAI <150) by Week 8: effective
  induce Response 70 and/or Response 100 by Week 8: effective
[3]; 0.25 mg/day
  improve and/or maintain IBDQ score by Week 52: effective
  induce and/or maintain IBDQ Remission by Week 52: effective
  induce and/or maintain IBDQ Response by Week 52: effective
  induce and/or maintain Remission by Week 52: effective
  induce and/or maintain steroid-free Remission by Week 52: effective
  sustain Remission (Remission at Week 36 and Week 52): effective
[3]; 0.5 mg/day
  improve and/or maintain IBDQ score by Week 52: effective
  induce and/or maintain IBDQ Remission by Week 52: effective
  induce and/or maintain IBDQ Response by Week 52: effective
  induce and/or maintain Remission by Week 52: effective
  induce and/or maintain steroid-free Remission by Week 52: effective
  sustain Remission (Remission at Week 36 and Week 52): effective
